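Values below derive from 48-hour exposures of cells grown in 96-well plates, with endpoints linearly interpolated between the two concentrations bracketing the appropriate inhibition level. TGI: concentration producing complete growth inhibition.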
Assays:
Experiment in all cases: NCI-60 cell line screen, 48 h
[1] = test system: CCRF-CEM leukemia
[2] = test system: HT29 colon
[3] = test system: K-562 leukemia
[4] = test system: NCI-H23 lung
[5] = test system: OVCAR-5 ovarian
[6] = test system: RXF 393 renal
[7] = test system: SK-OV-3 ovarian
[8] = test system: UACC-257 melanoma
[9] = test system: BT-549 breast
[10] = test system: SN12C renal
[11] = test system: UACC-62 melanoma

Row | Compound | TGI [1] | TGI [2] | TGI [3] | TGI [4] | TGI [5] | TGI [6] | TGI [7] | TGI [8] | TGI [9] | TGI [10] | TGI [11]
1 | COC(=O)c1cc2c(c(C(=O)OC)c1)CCC2 | > 100 µM | > 100 µM | > 100 µM | > 100 µM | > 100 µM | > 100 µM | > 100 µM | > 100 µM |  |  | 
2 | CCOC(=O)c1c(N)sc2c1CC(C)CC2 (centres undefined) |  | 50.3 µM | > 100 µM | > 100 µM | > 100 µM | 44.9 µM | > 100 µM | 97.3 µM | > 100 µM | > 100 µM | > 100 µM
3 | O=c1[nH]c(Nc2ccc(Br)c(C(F)(F)F)c2)nc2nc[nH]c12 | > 100 µM | > 100 µM |  | > 100 µM | > 100 µM |  | > 100 µM | > 100 µM | > 100 µM | > 100 µM | 61.6 µM
4 | C=C(/C=C/C=C(\C)CCC=C(C)C)[C@@H]1CC[C@]2([C@H](CCCO)/C(=C(/C)C=O)CC[C@]2(C)O)[C@@H]1O | 48.8 µM | 30.9 µM | 30.9 µM | 45.7 µM | > 100 µM | 37.8 µM | > 100 µM | 59.5 µM |  | 31.4 µM | 
5 | COc1c2c(c3c(c1OC)c(=O)c1ccccc1n3C)OCO2 | > 100 µM | > 100 µM | > 100 µM | > 100 µM | > 100 µM |  | > 100 µM | > 100 µM | > 100 µM | > 100 µM | > 100 µM
6 | O=C(OC1=CCN(Br)C1=O)C1=C(O)C(=O)N(Br)C1 | > 100 µM |  | > 100 µM | > 100 µM | 52.8 µM | 38.5 µM | 71.2 µM | 87.6 µM | 46 µM | 31 µM | 36.3 µM
7 | COc1ccc(S(=O)(=O)Nc2ccc(-c3csc(N4C(=O)/C(=C/c5ccccc5[N+](=O)[O-])N=C4c4ccccc4)n3)cc2)cc1Cl |  | > 100 µM | > 100 µM | 76.8 µM | > 100 µM | > 100 µM | > 100 µM | > 100 µM |  | > 100 µM | > 100 µM
8 | CCn1c(SCC(=O)N/N=C2\SCC(=O)N2c2ccc(C)cc2)nc2ccccc2c1=O | > 100 µM | 31.2 µM | > 100 µM | 42.2 µM | 48.2 µM | 53.8 µM | 36 µM | 35.3 µM |  | 50.4 µM | 29.1 µM
9 | COc1ccc(C2SCC(=O)N2c2ccc(-n3c(-c4ccccc4)nc4ccccc4c3=O)cc2)cc1 (centres undefined) | > 100 µM | > 100 µM | > 100 µM | > 100 µM | > 100 µM |  | > 100 µM | > 100 µM | > 100 µM | > 100 µM | > 100 µM
10 | COC(=O)C1=C(C)NC(=O)N2[C@@H](CCOCc3ccccc3)CC[C@@H]12 | > 50 µM | > 50 µM | > 50 µM | > 50 µM | > 50 µM | > 50 µM | > 50 µM | > 50 µM |  |  | > 50 µM
11 | C=C1C(C(=O)OC)[C@H]1C(=O)OC (some centres undefined) |  | > 100 µM |  | > 100 µM | > 100 µM | > 100 µM | > 100 µM | > 100 µM | > 100 µM | > 100 µM | > 100 µM
12 | O=C1c2ccccc2N(O)C1(c1ccccc1)C1CCCC=C1N1CCOCC1 (centres undefined) | > 100 µM | > 100 µM | > 100 µM | > 100 µM | > 100 µM | > 100 µM | > 100 µM | > 100 µM |  | > 100 µM | > 100 µM
13 | Cc1cn(C2CC(n3cc(Cn4ccc(=O)[nH]c4=O)nn3)C(CO)O2)c(=O)[nH]c1=O (centres undefined) | > 100 µM |  |  | > 100 µM | > 100 µM | > 100 µM | > 100 µM | > 100 µM | > 100 µM | > 100 µM | > 100 µM
14 | CCCCCCN(CCCCCC)CCC(=O)c1ccc2cc(Br)c3ccccc3c2c1 |  | > 100 µM | > 100 µM | > 100 µM | > 100 µM | 64.3 µM | > 100 µM | > 100 µM | 51.6 µM | > 100 µM | 74.5 µM
15 | S=P1(Sc2ccccc2)Oc2ccc3ccccc3c2-c2c(ccc3ccccc23)O1 | > 100 µM | > 100 µM | > 100 µM | > 100 µM | > 100 µM | > 100 µM | > 100 µM | > 100 µM |  | > 100 µM | > 100 µM
16 | Nc1ncnc2c1ncn2[C@H]1C=C[C@@H](NO)C1 | > 100 µM |  | > 100 µM | > 100 µM | > 100 µM | > 100 µM | > 100 µM | > 100 µM | > 100 µM | > 100 µM | > 100 µM
17 | CC(C)(C)c1ccc2c(c1)OP1(Oc3c(Cl)cc(Cl)c4cccnc34)(O2)Oc2ccc(C(C)(C)C)cc2O1 | > 100 µM | 19.5 µM | > 31.6 µM | 21.8 µM | 27.5 µM | 30 µM | 16.5 µM | 14.2 µM |  | 30.8 µM | 21.1 µM
18 | NCC(=O)Nc1ccccc1 |  | > 100 µM | > 100 µM | > 100 µM | > 100 µM | > 100 µM |  | > 100 µM | > 100 µM | > 100 µM | > 100 µM
19 | CCCCSC1=N/C(=C\c2ccccc2O)C(=O)N1 |  | > 100 µM | > 100 µM | > 100 µM | > 100 µM | > 100 µM | > 100 µM | > 100 µM | > 100 µM | > 100 µM | > 100 µM
20 | O=P1(c2ccccc2)C(c2ccccc2)CCC1c1ccccc1 (centres undefined) | > 100 µM |  | > 100 µM | > 100 µM |  | > 100 µM | > 100 µM | > 100 µM | 85.5 µM | > 100 µM | > 100 µM
21 | COc1ccc(CCN2CCN(CCCc3ccccc3)CC2)cc1 | > 100 µM | > 100 µM | > 100 µM | > 100 µM | > 100 µM |  | > 100 µM | > 100 µM | > 100 µM | > 100 µM | > 100 µM
22 | CCOC(=O)C(NC(=O)c1cccc(Cl)c1)(Nc1ccc(S(=O)(=O)Nc2cc(C)on2)cc1)C(F)(F)F (centres undefined) | > 100 µM | > 100 µM | > 100 µM | > 100 µM | > 100 µM | > 100 µM | > 100 µM | > 100 µM |  | > 100 µM | 

From PubChem BioAssay (NCI)
